In patent US20030013637A1, “Novel anti-autoimmune composition by inhibition of GRF action” (priority 2001, published 2003):

System: EAE-induced PLSJLF1/J mice
Test: Effect of GRF antagonist administration on experimental autoimmune encephalomyelitis (EAE) induced by rabbit MBP immunization and pertussis toxin
Type: in vivo
Procedure: In order to investigate the affect of the administration of GRF antagonist on the onset of autoimmune disease, studies were conducted using experimental autoimmune encephalomyelitis (EAE), which is an experimental animal model of human multiple sclerosis.
Wild mice (PLSJLF1/J) (females purchased from The Jackson Laboratory) were used in the experiment. The mice were purchased at five weeks of age, and were reared under artificial lighting from 8:00 am to 8:00 pm every day throughout the experiment. The animals were allowed free access to water and solid food (CE-2; Japan CLEA).
First, these mice (total ten animals) were sensitized by subcutaneous administration in the femoral area of 100 μL of an emulsion in a 1:1 mixture of complete Freund's adjuvant (CFA) (Difco Co.) to 2 mg/mL rabbit myelin basic protein (MBP) (manufactured by Sigma Co.) dissolved in physiological saline (manufactured by Otsuka Pharmaceutical Co. Ltd.). Pertussis toxin (manufactured by List Biological Laboratories) (200 ng) dissolved in physiological saline (manufactured by Otsuka Pharmaceutical Co. Ltd.) was intra-abdominally administered immediately after and two days after sensitization. In this manner, experimental autoimmune encephalomyelitis (EAE) was induced.
Next, GRF antagonist was administered in compliance with the following procedures. The mice (total of ten animals) that had been MBP sensitized and administered pertussis toxin were divided into two groups. One group (five animals) was subcutaneously administered in the dorsal neck region 30 μg of GRF antagonist (MZ-4-71; manufactured by the US company Calbiochem Novabiochem) per mouse once per day from the eighth to 15th day after MBP sensitization (MZ-4-71 administration group). The other group (five animals) was subcutaneously administered in the dorsal neck region an equal amount of physiological saline in the same way as a control once per day from the eighth to 15th day after MBP sensitization (saline administration group). All animals were allowed free access to food and water throughout the entire rearing period including during the aforementioned experimental period.
The body weight of each mouse was measured every day. The EAE symptoms were observed. and EAE symptom scores were recorded based on the following criteria.
0: No symptoms, 1: Paralysis of tail, 2: Mild paralysis of rear legs, 3: Moderate to severe paralysis of rear legs or mild paralysis of front legs, or both, 4: Complete paralysis of rear legs or moderate to severe paralysis of front legs, or both, 5: Paralysis of all four limbs or struggling with death, 6: Death

Substance: [Ibu^0, D-Arg^2, Phe(4-Cl)^6, Abu^15, Nle^27]hGHRH-(1-28)Agm [MZ-4-71]
- beginning of EAE onset (PLSJLF1/J mice, 30 μg per mouse s.c. once per day, day 8 to 15 after MBP sensitization, FIG. 2(A)): 11 post-sensitization day
- beginning of flare-ups (after remission, 30 μg per mouse s.c. once per day, day 8-15): 20 post-sensitization day
- mean EAE score (beginning post-sensitization day 17, remissions in all the mice, 30 μg per mouse s.c. once per day, day 8-15): 0
- mean EAE score (post-sensitization day 13, 30 μg per mouse s.c. once per day, day 8-15, score scale 0-6): 0.3
- peak mean EAE score (post-sensitization day 23, peak over subsequent observation period, 30 μg per mouse s.c. once per day, day 8-15): 2.2
- EAE onset percentage (post-sensitization day 26, 30 μg per mouse s.c. once per day, day 8-15, FIG. 2(B)): not more than 60%
- EAE scores compared to the saline administration group (time course of mean values, FIG. 2(A)): lower EAE scores
- beginning of EAE onset compared to the saline administration group (time course of onset percentage, FIG. 2(B)): a delay in the beginning of EAE onset
